Measured values reported in patent US20130345218A1 (Vertex Pharmaceuticals Incorporated, priority 2010, published 2013).
Read-outs that look alike come from different tables or passages of the source.

Columns and labels:
[1] = system: influenza A virus (A/PR/8/34) minus-strand viral RNA; test: microbe, parasite or virus in culture; type: cell-based; conditions: Influenza A virus, PR/8
[2] = system: influenza A virus (A/PR/8/34); test: microbe, parasite or virus in culture; type: cell-based; conditions: Influenza A virus, PR/8, MDCK, MDCK cells
influenza infection = test: Influenza therapeutic mouse model (survival, body weight, whole body plethysmography); type: in vivo; conditions: Balb/c mice, dosing @ 48 hours post infection with 30 mg/kg BID X 10 days
[3] = mean EC50 (mean all), viral RNA by bDNA, read-out: bDNA EC50
[4] = 72 h, mean IC50 (mean all), A/PR/8/34, 72 hours, read-out: Flu, MDCK IC50

| SMILES | EC50 [1, 3] | IC50 [2, 4] | further results |
| --- | --- | --- | --- |
| O=C(N[C@@H]1CCC[C@H](Nc2nc(-c3c[nH]c4ncc(F)cc34)c(C(F)(F)F)cc2F)C1)N1CCOCC1 [Compound I-22, N-[(1R,3S)-3-[[3-fluoro-6-(5-fluoro-1H-pyrrolo[2,3-b]pyridin-3-yl)-5-(trifluoro-methyl)-2-pyridyl]amino]cyclohexyl]morpholine-4-carboxamide] | < 3.3 µM | < 3.3 µM |  |
| O=C(O)[C@H]1C2CCC(CC2)[C@@H]1Nc1cc(C(F)(F)F)cc(-c2c[nH]c3ncc(F)cc23)n1 [Compound I-40] | < 3.3 µM | < 3.3 µM |  |
| O=C(O)[C@@H]1C2CCC(CC2)[C@H]1Nc1nc(-c2c[nH]c3ncc(F)cc23)c(F)cc1F [Compound I-26] | < 3.3 µM | < 3.3 µM |  |
| O=C(O)[C@H]1C2CCC(CC2)[C@@H]1Nc1cnnc(-c2c[nH]c3ncc(F)cc23)n1 [Compound I-46] | < 3.3 µM | < 3.3 µM |  |
| N#CC1(C(=O)N[C@@H]2CCC[C@H](Nc3nc(-c4c[nH]c5ncc(F)cc45)c(F)cc3F)C2)CC1 [Compound I-23] | < 3.3 µM | < 3.3 µM |  |
| O=C(O)[C@H]1C2CCC(CC2)[C@@H]1Nc1ncc(F)c(-c2c[nH]c3ncc(F)cc23)n1 (racemic) [Compound I-29, (+/−) trans-3-((5-fluoro-4-(5-fluoro-1H-pyrrolo[2,3-b]pyridin-3-yl)pyrimidin-2-yl)amino)bicyclo[2.2.2]octane-2-carboxylic acid] | < 3.3 µM | < 3.3 µM |  |
| N#Cc1cc(F)c(NC2C3CCC(CC3)C2C(=O)O)cc1-c1c[nH]c2ncc(F)cc12 (racemic) [Compound I-51, (+/−)-3-((4-cyano-2-fluoro-5-(5-fluoro-1H-pyrrolo[2,3-b]pyridin-3-yl)phenyl)amino)bicyclo[2.2.2]octane-2-carboxylic acid] | < 3.3 µM | < 3.3 µM |  |
| O=C(N[C@@H]1CCC[C@H](Nc2nc(-c3c[nH]c4ncc(F)cc34)c(C(F)(F)F)cc2F)C1)N1CCCC1 (stereo in doubt) [Compound I-20, N-((1R,3S)-3-((3-fluoro-6-(5-fluoro-1H-pyrrolo[2,3-b]pyridin-3-yl)-5-(trifluoromethyl)-pyridin-2-yl)amino)cyclohexyl)pyrrolidine-1-carboxamide] | < 3.3 µM | < 3.3 µM |  |
| N#Cc1cnc(N[C@H]2CCCC[C@@H]2C(=O)O)nc1-c1c[nH]c2ncc(Cl)cc12 [Compound I-1, (1S,2S)-2-((4-(5-chloro-1H-pyrrolo[2,3-b]pyridin-3-yl)-5-cyanopyrimidine-2-yl)amino)-cyclohexanecarboxylic acid] | < 3.3 µM | < 3.3 µM |  |
| O=C(O)[C@H]1C2CCC(CC2)[C@@H]1Nc1nc(-c2c[nH]c3ncc(Cl)cc23)c(F)cc1F [Compound I-34, (2S,3S)-3-((6-(5-chloro-1H-pyrrolo[2,3-b]pyridin-3-yl)-3,5-difluoropyridin-2-yl)amino)-bicyclo[2.2.2]octane-2-carboxylic acid] | < 3.3 µM | < 3.3 µM |  |
| O=C(O)[C@H]1C2CCC(CC2)[C@@H]1Nc1nc(-c2c[nH]c3ncc(F)cc23)c(F)cc1F [Compound I-28, (2S,3S)-3-((3,5-difluoro-6-(5-fluoro-1H-pyrrolo[2,3-b]pyridin-3-yl)pyridin-2-yl)amino)bicyclo[2.2.2]octane-2-carboxylic acid] | < 3.3 µM | < 3.3 µM | EC50 ([1]; bDNA assay, read-out: EC50): 0.005 µM; Percent Weight Loss (Day 8) (influenza infection; post challenge day 8): 24.8%; Percent Survival (influenza infection; scored for 21 days): 100%; WBP (Penh; Day 6) (influenza infection; whole body plethysmography): 1.84; IC50 ([2]; CPE assay, A/PR/8/34, read-out: IC50): 0.005 µM |
| COC(=O)[C@@H]1C2CCC(CC2)[C@H]1Nc1nc(-c2c[nH]c3ncc(Cl)cc23)c(F)cc1F [Compound I-31] | > 3.3 µM | ≥ 3.3 µM |  |
| O=C(N[C@@H]1CCC[C@H](Nc2nc(-c3c[nH]c4ncc(F)cc34)c(F)cc2F)C1)N1CCCC1 [Compound I-15, N-((1R,3S)-3-((3,5-difluoro-6-(5-fluoro-1H-pyrrolo[2,3-b]pyridin-3-yl)pyridin-2-yl)amino)cyclohexyl)pyrrolidine-1-carboxamide] | < 3.3 µM | < 3.3 µM |  |
| COC(=O)[C@H]1C2CCC(CC2)[C@@H]1Nc1nc(-c2c[nH]c3ncc(Cl)cc23)c(F)cc1F [Compound I-33, (2S,3S)-methyl 3-((6-(5-chloro-1H-pyrrolo[2,3-b]pyridin-3-yl)-3,5-difluoropyridin-2-yl)amino)bicyclo[2.2.2]octane-2-carboxylate] | < 3.3 µM | < 3.3 µM |  |
| O=C(O)[C@H]1C2CCC(CC2)[C@@H]1Nc1cc(C(F)(F)F)cc(-c2c[nH]c3ncc(F)cc23)n1 (racemic) [Compound I-37, (+/−)-trans-3-((6-(5-fluoro-1H-pyrrolo[2,3-b]pyridin-3-yl)-4-(trifluoro-methyl)pyridin-2-yl)amino)bicyclo[2.2.2]octane-2-carboxylic acid] | < 3.3 µM | < 3.3 µM |  |
| N#Cc1cnc(N[C@@H]2C3CCC(CC3)[C@H]2C(=O)O)nc1-c1c[nH]c2ncc(C(F)(F)F)cc12 (racemic) [Compound I-39, (+/−)-trans 3-((5-cyano-4-(5-(trifluoromethyl)-1H-pyrrolo[2,3-b]pyridin-3-yl)pyrimidin-2-yl)amino)bicyclo[2.2.2]octane-2-carboxylic acid] | < 3.3 µM | < 3.3 µM |  |
| O=C(O)C1C2CCC(CC2)C1Nc1cnnc(-c2c[nH]c3ncc(F)cc23)n1 (racemic) [Compound I-42, (+/−)-3-[[3-(5-fluoro-1H-pyrrolo[2,3-b]pyridin-3-yl)-1,2,4-triazin-5-yl]amino]bicyclo[2.2.2]octane-2-carboxylic acid] | < 3.3 µM | < 3.3 µM |  |
| N#Cc1cc(F)c(N[C@H]2CCC[C@@H](NC(=O)N3CC[C@@H](F)C3)C2)nc1-c1c[nH]c2ncc(F)cc12 [Compound I-14, (R)—N-((1R,3S)-3-((5-cyano-3-fluoro-6-(5-fluoro-1H-pyrrolo[2,3-b]pyridin-3-yl)pyridin-2-yl)amino)cyclohexyl)-3-fluoropyrrolidine-1-carboxamide] | < 3.3 µM | < 3.3 µM |  |
| O=C(O)[C@H]1C2CCC(CC2)[C@@H]1Nc1cc(-c2c[nH]c3ncc(F)cc23)ncc1F (racemic) [Compound I-50, (+/−)-(2,3)-trans-3-((5-fluoro-2-(5-fluoro-1H-pyrrolo[2,3-b]pyridin-3-yl)pyridin-4-yl)amino)bicyclo[2.2.2]octane-2-carboxylic acid] | < 3.3 µM | < 3.3 µM |  |
